Measurements as given in patent publication US20260060961A1, “SUBSTITUTED HETEROCYCLES AS RAS INHIBITORS” (Jazz Pharmaceuticals Ireland Limited, priority 2022, published 2026).

Target: Recombinant human KRAS protein containing the G12C amino acid substitution (Homo sapiens (Human), UniProt P01116, G12C)
Assay: HTRF nucleotide exchange assay, KRAS G12C
Format: biochemical
Conditions: 180 minute incubation with compound at room temperature; at least two independent replicates; read-out: KRAS G12C HTRF NEA IC50
Method: The capacity of compounds to bind KRAS G12C and KRAS wildtype was quantified using a HTRF nucleotide exchange assay. Recombinant human KRAS protein (5 nM; aa1-188 KRAS WT or KRAS containing the G12C amino acid substitution, an N-terminal 6×His-tag and leader sequence), and 2 nM Europium-labeled anti-6×His antibody were mixed in assay buffer (10 mM HEPES pH7.3, 75 mM NaCl, 5 mM MgCl2, 0.05% BSA, 0.0025% NP-40 and 100 mM KF) with various concentrations of compound in a 384-well plate and a volume of 5 μL. After a 180 minute incubation at room temperature, 5 μl of 200 nM EDA-GTP-DY647P1 diluted in assay buffer was added to the plate. Following 30-minute incubation at room temperature, time-resolved fluorescence was measured on a PerkinElmer Envision plate reader. DMSO (0.3%) and unlabeled GDP (1 μM) or equivalent tool compound were used to generate the Max and Min assay signals, respectively. Data was analysed using a four-parameter logistic model to calculate IC50 values, with at least two independent replicates were performed for each compound.

Recombinant human KRAS protein containing the G12C amino acid substitution, sequence (P01116 other isoform, or with tags, fused parts or gaps G12C): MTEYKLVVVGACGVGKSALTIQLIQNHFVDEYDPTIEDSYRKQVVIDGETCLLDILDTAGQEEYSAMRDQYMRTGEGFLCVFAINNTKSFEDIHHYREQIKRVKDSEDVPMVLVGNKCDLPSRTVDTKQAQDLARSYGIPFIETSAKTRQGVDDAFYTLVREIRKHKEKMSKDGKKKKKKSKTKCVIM

| IC50 [nM] | SMILES |
| --- | --- |
| ≤ 1000 | C=CC(=O)N1CC2(CC(c3nc(-c4ccc5c(cnn5C)c4)c(-c4cc(O)ccc4C(F)(F)F)n3C)C2)C1 [Example 39, 1-[6-[5-[5-hydroxy-2-(trifluoromethyl)phenyl]-1-methyl-4-(1-methylindazol-5-yl)imidazol-2-yl]-2-azaspiro[3.3]heptan-2-yl]prop-2-en-1-one] |
| ≤ 1000 | C=CC(=O)N1CC2(CC(c3nc(-c4ccc5c(cnn5C)c4)c(-c4cc(Cl)cc5[nH]ncc45)n3C)C2)C1 [Example 41, 1-[6-[5-(6-chloro-1H-indazol-4-yl)-1-methyl-4-(1-methylindazol-5-yl)imidazol-2-yl]-2-azaspiro[3.3]heptan-2-yl]prop-2-en-1-one] |

More lines, now with the values behind:

| SMILES | IC50 [nM] |
| --- | --- |
| C=CC(=O)N1CC2(CC(c3nc(-c4ccc5c(cnn5C)c4)c(-c4cccc5sc(N)c(C#N)c45)n3C)C2)C1 [Example 36, 2-amino-4-[3-methyl-5-(1-methylindazol-5-yl)-2-(2-prop-2-enoyl-2-azaspiro[3.3]heptan-6-yl)imidazol-4-yl]benzothiophene-3-carbonitrile] | 1000 to 10000 |
| C=CC(=O)N1CC2(CC(c3nc(-c4ccc(C(=O)NCCN5CCOCC5)cc4)c(-c4cc(O)cc5ccccc45)n3C)C2)C1 [Example 37, 4-[5-(3-hydroxy-1-naphthyl)-1-methyl-2-(2-prop-2-enoyl-2-azaspiro[3.3]heptan-6-yl)imidazol-4-yl]-N-(2-morpholinoethyl)benzamide] | ≤ 1000 |
| C=CC(=O)N1CC2(CC(c3nc(-c4ccc5c(cnn5C)c4)c(-c4c(C)c(C)cc5[nH]ncc45)n3C)C2)C1 [Example 38, 1-[6-[5-(5,6-dimethyl-1H-indazol-4-yl)-1-methyl-4-(1-methylindazol-5-yl)imidazol-2-yl]-2-azaspiro[3.3]heptan-2-yl]prop-2-en-1-one] | ≤ 1000 |
| C=CC(=O)N1CC2(CC(c3nc(-c4ccc5c(cnn5C)c4)c(-c4cc(C#N)cc5[nH]ncc45)n3C)C2)C1 [Example 40, 4-[3-methyl-5-(1-methylindazol-5-yl)-2-(2-prop-2-enoyl-2-azaspiro[3.3]heptan-6-yl)imidazol-4-yl]-1H-indazole-6-carbonitrile] | 1000 to 10000 |
